Assay results published in patent EP0769966B1, “BIOTIN COMPOUNDS FOR TARGETTING TUMORS AND SITES OF INFECTION” (priority 1994, dated 1995).

Key:
avidin = avidin (Gallus gallus, UniProt P02701); test: Competitive binding of F-18 labeled biotin analogs to avidin vs. unlabeled d-biotin; settings: in the presence of varying concentrations of unlabeled d-biotin
Protocol: The two biotin derivatives were evaluated for binding to avidin in the presence of varying concentrations of unlabeled d-biotin as described in Example 3.
A preliminary measure of the binding characteristics of the fluoro analogs of biotin were performed. The binding of these novel F-18 labeled biotin analogs to avidin was evaluated by measuring the binding of F-18 labeled biotin analogs to avidin in the presence of varying concentrations of unlabeled d-biotin. Serial dilutions of d-biotin were prepared in phopshate buffered saline pH 7.4 (PBS). A fixed quantity of the no-carrier added F-18 labeled biotin 1 or 2 (10- 100µCi) were mixed with each d-biotin dilution so that the range of concentrations of cold biotin were 3 orders of magnitude greater and less than the concentration of avidin ([…]). A 200 µl aliquot of the F-18 biotin/cold biotin solution was added to 200 µl of avidin in PBS. The solution was vortexed and allowed to incubate for 1 hour after which time a 5 µl aliquot of the solution was analysed by instant thin layer chromatography (Gelman ILTC-SG) using 0.1 M acetate buffer pH 6.0. In this chromatographic system the F-18 biotin analogs bound to avidin origin while the unbound F-18-biotin analogs move to the solvent front. Percent binding of F-18 biotin analog was calculated as [(counts at origin/total counts)* 100]. For each F-18-biotin analog potential impurities remaining at the origin were determined and the results of binding corrected accordingly.

in vivo = format: in vivo, male Sprague-Dawley rats; settings: rat, in vivo, iv
Protocol: (§1) A clinical isolate of E. Coli was stored at -70°C in a freezing media containing 20% glycerol and 80% dextrose phosphate until use. Aliquots of bacteria were defrosted and colony counts performed on serial dilutions grown overnight on BBL Brucella agar plates. Based on the colony count, freshly thawed bacteria suspensions were washed and diluted with saline to a final concentration of […]. Aliquots (0.1 ml) of bacterial suspensions (8 x 10^9 organisms/ml) were injected into the right thigh muscle of 48 male Sprague-Dawley rats (125-150 g, Charles River Breeding Laboratories, Burlington, MD). Twenty-four rats were used for each labeled biotin compound. Twenty-four hours after injection, swelling in the right thigh readily appeared, and 24 rats each received 1.67 mg of avidin in saline via the tail vein. […] Rats were sacrificed at 5 and 60 min. post-injection, six rats per time point. Blood samples were obtained by cardiac puncture. Syringes were weighed before and after injection to determine the volume delivered. The activity per unit volume was obtained from standards. A total of eleven different tissues were excised, weighed, and counted. These tissues included blood; bone; lung; liver; adrenal; spleen; kidneys; heart; muscle (thigh); teste; and infected muscle (thigh). The excised tissues were blotted, weighed, and counted in a scintillation well counter. The raw counts were decay corrected. The results were expressed as percent injected dose per gram, and infection-to-normal muscle ratios (mean ± s.d.). The biodistribution results were evaluated by analysis of variance (one-way ANOVA). The effect of avidin […] on biodistribution was evaluated by student t-test.

E. coli infected rats = test: in vivo; format: in vivo, male Sprague-Dawley rats; settings: for Infected to normal tissue ratio, Norm mus: infection/normal muscle
Protocol: as §1

avidin, sequence (P02701 25-152): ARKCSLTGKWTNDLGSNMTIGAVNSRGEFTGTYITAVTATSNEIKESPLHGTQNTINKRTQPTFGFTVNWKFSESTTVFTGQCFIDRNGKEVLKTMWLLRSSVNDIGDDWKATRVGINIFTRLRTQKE

O=C1N[C@H]2[C@H](CS[C@H]2CCCCC[18F])N1 [Biotin 2]
binding to avidin (avidin): no specific binding
tissue uptake at 5 min (in vivo; Tissue distribution, Adrenal): 1.56 ± 0.14 %ID/g
tissue uptake at 1 h (in vivo; Tissue distribution, Adrenal): 0.92 ± 0.21 %ID/g
tissue uptake at 5 min (in vivo; Tissue distribution, Blood): 0.88 ± 0.07 %ID/g
tissue uptake at 1 h (in vivo; Tissue distribution, Blood): 0.3 ± 0.02 %ID/g
tissue uptake at 5 min (in vivo; Tissue distribution, Bone): 0.73 ± 0.09 %ID/g
tissue uptake at 1 h (in vivo; Tissue distribution, Bone): 1.17 ± 0.21 %ID/g
tissue uptake at 5 min (in vivo; Tissue distribution, Heart): 0.8 ± 0.06 %ID/g
tissue uptake at 1 h (in vivo; Tissue distribution, Heart): 0.25 ± 0.03 %ID/g
tissue uptake at 5 min (in vivo; Tissue distribution, Inf mus): 0.49 ± 0.05 %ID/g
tissue uptake at 1 h (in vivo; Tissue distribution, Inf mus): 0.2 ± 0.02 %ID/g
tissue uptake at 5 min (in vivo; Tissue distribution, Kidney): 1.62 ± 0.18 %ID/g
tissue uptake at 5 min (in vivo; Tissue distribution, Liver): 1.63 ± 0.27 %ID/g
tissue uptake at 1 h (in vivo; Tissue distribution, Liver): 0.42 ± 0.03 %ID/g
tissue uptake at 5 min (in vivo; Tissue distribution, Lung): 1.38 ± 0.21 %ID/g
tissue uptake at 1 h (in vivo; Tissue distribution, Lung): 0.58 ± 0.1 %ID/g
tissue uptake at 5 min (in vivo; Tissue distribution, Norm mus): 0.62 ± 0.09 %ID/g
tissue uptake at 1 h (in vivo; Tissue distribution, Norm mus): 0.35 ± 0.09 %ID/g
tissue uptake at 5 min (in vivo; Tissue distribution, Spleen): 1.7 ± 0.68 %ID/g
tissue uptake at 1 h (in vivo; Tissue distribution, Spleen): 0.26 ± 0.01 %ID/g
tissue uptake at 5 min (in vivo; Tissue distribution, Teste): 0.59 ± 0.08 %ID/g
tissue uptake at 1 h (in vivo; Tissue distribution, Teste): 0.2 ± 0.03 %ID/g
tissue uptake at 1 h (in vivo; ^18F bone uptake (defluorination in vivo)): 1.17 ± 0.21 %ID/g
Infected to normal tissue ratio, Adrenal (E. coli infected rats; With Avidin, 5 Min.): 0.22±0.03
Infected to normal tissue ratio, Blood (E. coli infected rats; With Avidin, 5 Min.): 0.51±0.07
Infected to normal tissue ratio, Heart (E. coli infected rats; With Avidin, 5 Min.): 0.46±0.03
Infected to normal tissue ratio, Kidney (E. coli infected rats; With Avidin, 5 Min.): 0.16±0.02
Infected to normal tissue ratio, Liver (E. coli infected rats; With Avidin, 5 Min.): 0.23±0.02
Infected to normal tissue ratio, Lung (E. coli infected rats; With Avidin, 5 Min.): 0.28±0.02
Infected to normal tissue ratio, Spleen (E. coli infected rats; With Avidin, 5 Min.): 0.44±0.05
Infected to normal tissue ratio, Teste (E. coli infected rats; With Avidin, 5 Min.): 0.59±0.03
Infected to normal tissue ratio, bone (E. coli infected rats; With Avidin, 5 Min.): 0.51±0.03
Infected to normal tissue ratio, Norm mus (E. coli infected rats; With Avidin, 5 Min.): 0.65±0.10
Infected to normal tissue ratio, Adrenal (E. coli infected rats; With Avidin, 60 Min.): 0.214±0.03
Infected to normal tissue ratio, Blood (E. coli infected rats; With Avidin, 60 Min.): 0.71±0.05
Infected to normal tissue ratio, Heart (E. coli infected rats; With Avidin, 60 Min.): 0.91±0.05
Infected to normal tissue ratio, Kidney (E. coli infected rats; With Avidin, 60 Min.): 0.13±0.02
Infected to normal tissue ratio, Liver (E. coli infected rats; With Avidin, 60 Min.): 0.33±0.05
Infected to normal tissue ratio, Lung (E. coli infected rats; With Avidin, 60 Min.): 0.33±0.06
Infected to normal tissue ratio, Spleen (E. coli infected rats; With Avidin, 60 Min.): 0.35±0.04
Infected to normal tissue ratio, Teste (E. coli infected rats; With Avidin, 60 Min.): 1.15±0.06
Infected to normal tissue ratio, bone (E. coli infected rats; With Avidin, 60 Min.): 0.17±0.03
Infected to normal tissue ratio, Norm mus (E. coli infected rats; With Avidin, 60 Min.): 0.64±0.07
Infected to normal tissue ratio, Adrenal (E. coli infected rats; Without Avidin, 5 Min.): 0.31±0.02
Infected to normal tissue ratio, Blood (E. coli infected rats; Without Avidin, 5 Min.): 0.56±0.04
Infected to normal tissue ratio, Heart (E. coli infected rats; Without Avidin, 5 Min.): 0.61±0.03
Infected to normal tissue ratio, Kidney (E. coli infected rats; Without Avidin, 5 Min.): 0.30±0.02
Infected to normal tissue ratio, Liver (E. coli infected rats; Without Avidin, 5 Min.): 0.31±0.04
Infected to normal tissue ratio, Lung (E. coli infected rats; Without Avidin, 5 Min.): 0.36±0.05
Infected to normal tissue ratio, Spleen (E. coli infected rats; Without Avidin, 5 Min.): 0.70±0.04
Infected to normal tissue ratio, Teste (E. coli infected rats; Without Avidin, 5 Min.): 0.84±0.10
Infected to normal tissue ratio, bone (E. coli infected rats; Without Avidin, 5 Min.): 0.67±0.05
Infected to normal tissue ratio, Norm mus (E. coli infected rats; Without Avidin, 5 Min.): 0.80±0.12
Infected to normal tissue ratio, Adrenal (E. coli infected rats; Without Avidin, 60 Min.): 0.23±0.05
Infected to normal tissue ratio, Blood (E. coli infected rats; Without Avidin, 60 Min.): 0.68±0.06
Infected to normal tissue ratio, Heart (E. coli infected rats; Without Avidin, 60 Min.): 0.81±0.05
Infected to normal tissue ratio, Kidney (E. coli infected rats; Without Avidin, 60 Min.): 0.35±0.03
Infected to normal tissue ratio, Liver (E. coli infected rats; Without Avidin, 60 Min.): 0.48±0.33
Infected to normal tissue ratio, Lung (E. coli infected rats; Without Avidin, 60 Min.): 0.43±0.20
Infected to normal tissue ratio, Spleen (E. coli infected rats; Without Avidin, 60 Min.): 0.78±0.08
Infected to normal tissue ratio, Teste (E. coli infected rats; Without Avidin, 60 Min.): 1.04±0.11
Infected to normal tissue ratio, bone (E. coli infected rats; Without Avidin, 60 Min.): 0.17±0.03
Infected to normal tissue ratio, Norm mus (E. coli infected rats; Without Avidin, 60 Min.): 0.58 ± 0.07
Infected to normal tissue ratio, Norm mus (E. coli infected rats; Without Avidin, 60 Min., listed as 18F-labeled biotin 2): 0.58±0.07
Tissue distribution, Adrenal (E. coli infected rats; rat, in vivo, iv, 5 min): 2.00±0.24 percent injected dose per gram
Tissue distribution, Blood (E. coli infected rats; rat, in vivo, iv, 5 min): 0.85±0.04 percent injected dose per gram
Tissue distribution, Bone (E. coli infected rats; rat, in vivo, iv, 5 min): 0.86±0.12 percent injected dose per gram
Tissue distribution, Heart (E. coli infected rats; rat, in vivo, iv, 5 min): 0.96±0.10 percent injected dose per gram
Tissue distribution, Inf mus (E. coli infected rats; rat, in vivo, iv, 5 min): 0.44±0.05 percent injected dose per gram
Tissue distribution, Kidney (E. coli infected rats; rat, in vivo, iv, 5 min): 2.70±0.48 percent injected dose per gram
Tissue distribution, Liver (E. coli infected rats; rat, in vivo, iv, 5 min): 1.91±0.22 percent injected dose per gram
Tissue distribution, Lung (E. coli infected rats; rat, in vivo, iv, 5 min): 1.59±0.16 percent injected dose per gram
Tissue distribution, Norm mus (E. coli infected rats; rat, in vivo, iv, 5 min): 0.69±0.10 percent injected dose per gram
Tissue distribution, Spleen (E. coli infected rats; rat, in vivo, iv, 5 min): 0.99±0.10 percent injected dose per gram
Tissue distribution, Teste (E. coli infected rats; rat, in vivo, iv, 5 min): 0.74±0.11 percent injected dose per gram
Tissue distribution, Adrenal (E. coli infected rats; rat, in vivo, iv, 1 h): 0.72±0.12 percent injected dose per gram
Tissue distribution, Bone (E. coli infected rats; rat, in vivo, iv, 1 h): 1.10±0.20 percent injected dose per gram
Tissue distribution, Inf mus (E. coli infected rats; rat, in vivo, iv, 1 h): 0.18±0.02 percent injected dose per gram
Tissue distribution, Liver (E. coli infected rats; rat, in vivo, iv, 1 h): 0.55±0.13 percent injected dose per gram
Tissue distribution, Lung (E. coli infected rats; rat, in vivo, iv, 1 h): 0.55±0.12 percent injected dose per gram
Tissue distribution, Norm mus (E. coli infected rats; rat, in vivo, iv, 1 h): 0.28±0.04 percent injected dose per gram
Tissue distribution, Spleen (E. coli infected rats; rat, in vivo, iv, 1 h): 0.51±0.09 percent injected dose per gram
Tissue distribution, Teste (E. coli infected rats; rat, in vivo, iv, 1 h): 0.15±0.02 percent injected dose per gram
